Measured values from US20110184018A1, “METHOD FOR TREATING PERIPHERAL NEUROPATHIC PAIN” (LOHOCLA RESEARCH CORPORATION, priority 2005, published 2011).

Tests used:
[1] = system: C57BL/6 mice; assay: Elevated-plus maze (anxiolytic effects); type: in vivo, mouse; conditions: i.p., about 60 minutes before testing
Procedure: In Panel A, mice were administered (i.p.) the indicated doses of DCUK-OEt about 60 minutes before behavioral testing on the elevated-plus maze. The number of times entered and the time spent in the open arms of the plus-maze were recorded. In Panel B, groups of mice were administered (i.p.) 50 mg/kg DCUK-OEt in an injection vehicle (5% TWEEN 80/0.5% methylcellulose) and tested at the indicated times with comparison to mice injected with vehicle alone. In both panels, mice treated with vehicle alone (i.e., absent the DCUKA compound) were tested 60 minutes after injection of vehicle. A greater percent of time spent in the open arms indicates an anxiolytic action of the drug. Significant differences in the percent time spent on the open arms of the maze are evident at doses as low as 25mg/kg. […]
The anxiolytic effect of the DCUK-OMe was tested in C57BL/6 mice with an elevated-plus maze apparatus. […] A trained observer blind to the treatment conditions scored the number of entries into open arms and the number of entries into closed arms over a 5-minutes period. […] The percentage of open arm entries (open arm entries/total arm entries) was calculated for each animal and used as a measure of the anxiolytic/anxiogenic effects of drug treatment. In addition, the total number of entries made into the […] was recorded as a measure of drug effects on locomotor activity. […]

[2] = molecular target: T1, CB1 receptor (Homo sapiens, UniProt P21554); assay: cAMP accumulation in HEK293 cells transfected with AC7, D1AR, CB1R; type: cell-based; conditions: dopamine stimulated cAMP
T1 construct: expressed in transfected cells; host or cells: HEK293 cells (ATCC), calcium phosphate transfection
Procedure: HEK293 cells were obtained from American Type Culture Collection (Manassas, Va.). Cells were cultured in 225 mL flasks containing 39 mL of MEM containing 10% fetal bovine serum, penicillin (50 μg/mL), streptomycin (50 μg/mL), and neomycin (100 μg/mL). The flasks were maintained in a humidified atmosphere of 95% air and 5% CO2 at about 37° C. Transfection was performed by the method of DNA precipitation with calcium phosphate 1 day after HEK 293 cells were transferred to small flasks (75 mL) at the density of approximately 60 to 80% confluence. […] Transfection efficiency was routinely monitored by observing the expression of enhanced green fluorescent protein (GFP) by an epifluorescence microscope equipped with a filter set (excitation, 480/40 nm; emission, 535/50 nm) and a dichroic mirror (T89002bs; Chroma Technology, Rockingham, Vt.). […]
To determine the effect of the DCUK-OEt or other compounds on the function of the CB1 receptor, the cells were treated with the phosphodiesterase inhibitor, IBMX (500 μM), for 10 minutes at 37° C., followed by the addition of D1A receptor agonist, dopamine (DA) (1 μM), in the presence of a known CB1 agonist or agonist, plus a CB1 antagonist for 5 minutes. […] ATP and cAMP were separated through Dowex 50 and neutral alumina columns as is known in the art, and quantified by liquid scintillation counting. […]

[3] = Brain levels of DCUKA after intraperitoneal administration; type: in vivo; conditions: over at least 2 hours
Procedure: While the acid forms of the diarylureido-dihalokynurenic acid compounds are detectable in the brain after intravenous or intraperitoneal injection, “prodrug” versions (e.g., esters) were prepared to enhance transport across the blood-brain barrier. FIG. 6 illustrates the brain levels of DCUKA after administration of DCUKA itself, the DCUK-O-methyl ester and the DCUK-O-ethyl ester. […] Accordingly, ethyl esters of the diarylureido-dihalokynurenate compounds are particularly preferred (e.g., DCUK-OEt).

[4] = molecular target: T1, CB1 receptor; assay: cAMP accumulation in HEK293 cells transfected with AC5, D1AR, CB1R; type: cell-based
Procedure: HEK293 cells were obtained from American Type Culture Collection (Manassas, Va.). Cells were cultured in 225 mL flasks containing 39 mL of MEM containing 10% fetal bovine serum, penicillin (50 μg/mL), streptomycin (50 μg/mL), and neomycin (100 μg/mL). The flasks were maintained in a humidified atmosphere of 95% air and 5% CO2 at about 37° C. Transfection was performed by the method of DNA precipitation with calcium phosphate 1 day after HEK 293 cells were transferred to small flasks (75 mL) at the density of approximately 60 to 80% confluence. Plasmid DNA containing AC5 or AC7 cDNA (11.5 μg), plasmid DNA carrying the human D1A dopamine receptor cDNA (3 μg) and CB1 receptor cDNA (3 μg), and pCMS-EGFP (1 μg) were used for each small flask, which also contained 13 mL of the culture medium. The amount of DNA per flask was adjusted to a total of 26 μg using vector DNA. Transfection efficiency was routinely monitored by observing the expression of enhanced green fluorescent protein (GFP) by an epifluorescence microscope equipped with a filter set (excitation, 480/40 nm; emission, 535/50 nm) and a dichroic mirror (T89002bs; Chroma Technology, Rockingham, Vt.). After transfection, cells were harvested and transferred into 24-well culture plates. The transfected cells were cultured for 1 to 2 days before the cAMP accumulation experiments were carried out.
After labeling and intracellular ATP pool with 3.0 μCi/mL of [2,8-^3H]adenine, cells were incubated in DMEM (0.5 mL/well) without phenol red, buffered to pH 7.1 with 20 mM of 4-(2-hydroxyethyl)-1-piperazineethanesulfonic acid (HEPES) for 30 minutes at 37° C.
To determine the effect of the DCUK-OEt or other compounds on the function of the CB1 receptor, the cells were treated with the phosphodiesterase inhibitor, IBMX (500 μM), for 10 minutes at 37° C., followed by the addition of D1A receptor agonist, dopamine (DA) (1 μM), in the presence of a known CB1 agonist or agonist, plus a CB1 antagonist for 5 minutes. The following agonist and antagonist were used: CB1 receptor agonist, ACEA (10 μM); CB1 receptor antagonist, AM251 (10 μM). In additional reactions, the addition of DA was accompanied by addition of DCUK-OEt (10 μM) or DCUK-OEt together with AM251 (10 μM). In a final set of reactions DCUK-OEt was added with ACEA (10 μM), to assess whether DCUK-OEt acted like a CB1 receptor antagonist. The reactions were terminated by adding 50 μL of 100% (w/v) tricholoroacetic acid. ATP and cAMP were separated through Dowex 50 and neutral alumina columns as is known in the art, and quantified by liquid scintillation counting. [α-^32P]ATP and 8-[^14C]cAMP were added as internal standards to monitor the recovery of ATP and cAMP through column chromatography. Conversion of [^3H] ATP into [^3H]cAMP was calculated as follows: [^3H]cAMP (%)=[^3H]cAMP (cpm)/([^3H]ATP (cpm)+[^3H]cAMP (cpm))·100. [^3H]cAMP (%) values obtained from cells which underwent only the 10-minute IBMX incubation period before the addition of trichloroacetic acid, were used as blanks and these values were subtracted from the values obtained from cells which underwent the 1-minute incubation period with DA in the presence or absence of other agonists/antagonists. Each condition was assayed in triplicate and the whole experimental procedure was repeated 4 times. The ratio of cAMP accumulation was calculated for all treatment groups versus DA treatment group (100%) and the values were averaged among the four batches of experiments.

[5] = molecular target: rat brain type IIA Na+ channel (Nav1.2) (Rattus norvegicus, UniProt P04775); assay: Whole-cell patch clamp recordings of Na+ currents in CNaIIA-1 cells; type: cell-based; conditions: fit of shift of inactivation curve
Sequence of rat brain type IIA Na+ channel (Nav1.2) (P04775 whole entry): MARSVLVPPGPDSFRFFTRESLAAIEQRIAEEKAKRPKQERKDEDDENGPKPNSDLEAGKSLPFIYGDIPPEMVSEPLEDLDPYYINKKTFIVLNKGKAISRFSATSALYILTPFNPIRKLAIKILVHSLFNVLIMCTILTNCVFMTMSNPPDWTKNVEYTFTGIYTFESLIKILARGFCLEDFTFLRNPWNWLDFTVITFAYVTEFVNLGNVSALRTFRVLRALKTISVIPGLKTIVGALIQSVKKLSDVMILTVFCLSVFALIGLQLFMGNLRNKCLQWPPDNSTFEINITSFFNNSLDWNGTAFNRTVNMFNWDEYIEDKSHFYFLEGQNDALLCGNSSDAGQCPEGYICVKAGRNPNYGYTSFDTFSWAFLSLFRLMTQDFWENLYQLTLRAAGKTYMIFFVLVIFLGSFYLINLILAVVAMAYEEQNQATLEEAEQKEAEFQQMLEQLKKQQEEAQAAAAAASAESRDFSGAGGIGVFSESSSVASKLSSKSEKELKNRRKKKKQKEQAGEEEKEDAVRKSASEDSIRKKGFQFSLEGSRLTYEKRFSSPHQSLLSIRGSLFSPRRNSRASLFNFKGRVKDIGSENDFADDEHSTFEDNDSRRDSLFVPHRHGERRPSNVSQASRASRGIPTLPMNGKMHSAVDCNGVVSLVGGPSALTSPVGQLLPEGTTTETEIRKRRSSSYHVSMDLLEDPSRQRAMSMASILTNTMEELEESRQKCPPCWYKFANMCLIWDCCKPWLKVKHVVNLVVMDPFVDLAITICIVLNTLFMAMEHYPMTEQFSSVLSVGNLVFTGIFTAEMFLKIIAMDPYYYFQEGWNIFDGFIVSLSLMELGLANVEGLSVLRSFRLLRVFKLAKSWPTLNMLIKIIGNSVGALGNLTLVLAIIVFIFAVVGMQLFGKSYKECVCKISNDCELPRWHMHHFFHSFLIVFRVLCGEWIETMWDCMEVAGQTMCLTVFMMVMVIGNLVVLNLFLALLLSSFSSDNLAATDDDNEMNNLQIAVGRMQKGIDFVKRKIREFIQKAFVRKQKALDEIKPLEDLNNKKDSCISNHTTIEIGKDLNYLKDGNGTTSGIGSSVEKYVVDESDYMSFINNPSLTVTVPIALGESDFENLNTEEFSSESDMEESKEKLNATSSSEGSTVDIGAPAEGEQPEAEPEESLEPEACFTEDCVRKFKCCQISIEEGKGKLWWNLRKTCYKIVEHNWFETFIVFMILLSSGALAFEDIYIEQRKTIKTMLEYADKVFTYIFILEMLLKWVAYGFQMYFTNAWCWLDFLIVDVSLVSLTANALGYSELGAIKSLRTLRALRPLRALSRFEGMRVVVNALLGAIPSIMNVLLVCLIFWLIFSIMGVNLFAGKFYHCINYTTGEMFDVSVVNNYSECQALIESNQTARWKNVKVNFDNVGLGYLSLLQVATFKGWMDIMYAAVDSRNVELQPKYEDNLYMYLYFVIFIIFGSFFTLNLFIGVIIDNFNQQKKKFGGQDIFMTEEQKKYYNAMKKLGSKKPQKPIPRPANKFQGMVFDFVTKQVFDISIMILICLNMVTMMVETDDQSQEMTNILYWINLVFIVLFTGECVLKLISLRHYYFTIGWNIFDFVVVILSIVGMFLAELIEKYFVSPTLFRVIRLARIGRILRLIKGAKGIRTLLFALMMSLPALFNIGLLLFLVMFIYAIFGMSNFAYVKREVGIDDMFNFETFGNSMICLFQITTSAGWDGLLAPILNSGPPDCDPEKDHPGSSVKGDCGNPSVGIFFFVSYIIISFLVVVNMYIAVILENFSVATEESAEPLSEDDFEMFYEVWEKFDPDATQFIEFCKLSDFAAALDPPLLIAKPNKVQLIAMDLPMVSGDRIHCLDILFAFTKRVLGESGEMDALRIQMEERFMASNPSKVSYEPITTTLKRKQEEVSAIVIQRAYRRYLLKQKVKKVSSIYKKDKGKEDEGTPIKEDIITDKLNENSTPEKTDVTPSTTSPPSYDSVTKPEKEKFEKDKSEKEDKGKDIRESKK

T1 sequence (P21554 whole entry): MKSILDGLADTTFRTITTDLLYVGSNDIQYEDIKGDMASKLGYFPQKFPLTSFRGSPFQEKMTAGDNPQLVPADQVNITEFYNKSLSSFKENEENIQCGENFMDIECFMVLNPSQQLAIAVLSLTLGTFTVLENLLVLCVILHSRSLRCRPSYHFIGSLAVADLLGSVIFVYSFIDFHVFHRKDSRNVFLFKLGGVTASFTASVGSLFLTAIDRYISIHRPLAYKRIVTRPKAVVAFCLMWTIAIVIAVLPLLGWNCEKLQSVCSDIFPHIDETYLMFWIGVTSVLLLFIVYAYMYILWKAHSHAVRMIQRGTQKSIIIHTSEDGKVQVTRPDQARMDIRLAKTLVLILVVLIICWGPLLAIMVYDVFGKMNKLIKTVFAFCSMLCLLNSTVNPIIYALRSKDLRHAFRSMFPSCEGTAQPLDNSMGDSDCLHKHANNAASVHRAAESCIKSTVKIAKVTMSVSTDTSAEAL

| functional action at CB1 receptor [2] | effect on DA stimulated cAMP production with AM251 added ([4]; AM251 10 μM) | reversal of the effects of ACEA ([4]; added with ACEA 10 μM) | effect on DA stimulated cAMP production ([4]; dopamine 1 μM, compound 10 μM) | Compound | lowest dose with significant differences in percent time spent on the open arms [1] [mg/kg] | levels of DCUKA in the brain generated by the ester [3] | Ki ([5]; read-out: KI, dissociation constant for inactivated states) [µM] | Kd ([5]; read-out: KR, dissociation constant for the resting state) [µM] |
| --- | --- | --- | --- | --- | --- | --- | --- | --- |
| acts like an agonist at the CB1 receptor | reversed by AM251 | did not reverse the effects of ACEA | reduced DA stimulated cAMP production | CCOC(=O)c1cc(NC(=O)N(c2ccccc2)c2ccccc2)c2c(Cl)cc(Cl)cc2n1 [DCUK-OEt, N,N-diphenyl-4-ureido-5,7-dichloro-2-carboxy quinoline ethyl ester] | 25 | significantly improved levels of DCUKA in the brain | – | – |
| – | – | – | – | O=C(O)c1cc(NC(=O)N(c2ccccc2)c2ccccc2)c2c(Cl)cc(Cl)cc2n1 [DCUKA, N,N-diphenyl-4-ureido-5,7-dichloro-2-carboxyquinoline] | – | – | 9.8 | 244 |
